Source: publication PMC11356900, “Synthesis, Structural Properties and Biological Activities of Novel Hydrazones of 2-, 3-, 4-Iodobenzoic Acid” (Molecules, 2024)

Key:
T47D cell line = assay: MTT cytotoxicity assay; type: cell-based
Protocol: (§1) Among all the newly synthesized compounds, four compounds designated as: 14, 20, 21 and 27 were selected for further testing of their cytotoxic properties at the doses of 10, 25, 50, 75 and 100 µM. The cytotoxic properties of the above compounds were tested on the cancer cell lines, i.e., A549 (ECACC 86012804) (non-small-cell lung cancer), T47D (ECACC 85102201) (breast cancer), HeLa (ATCC® CCL-2™) (cervical cancer) and normal line L929 (NCTC clone 929, ATCC® CCL-1™) (mouse fibroblasts) using the MTT test for 24- and 48 h cultures.
(§2) A549 (ECACC 86012804) (non-small-cell lung cancer) and T47D (ECACC 85102201) (breast cancer) were obtained from ECACC and propagated in Dulbecco’s Minimal Essential Medium, supplemented with 2 mM of glutamine, antibiotics ([…] streptomycin, 1% of 100 U/L penicillin) and 10% Fetal Bovine Serum. HeLa (ATCC® CCL-2™) (cervical cancer) and L929 (NCTC clone 929, ATCC® CCL-1™) (mouse fibroblasts) cell lines were obtained from ATCC and propagated in the Eagle Minimal Essential Medium supplemented with antibiotics ([…] streptomycin, 1% of 100 U/L penicillin) and with 10% and 5% FBS, respectively. The cell line was routinely grown in 75 cm^2 tissue culture flasks and kept in an incubator (humidified atmosphere of 5% CO2 at 37 °C). All examined cell lines were tested against mycoplasma contamination with microbiological assays.
(§3) The cell viability of tested compounds (14, 20, 21 and 27) was assessed by the MTT assay. In brief, the exponentially growing cells were plated in 100 μL/well in 96-well plates. After 24 h culturing, the cells were treated with different concentrations of compounds (range 10–100 μM). After 24 and 48 h of incubation, 10 μL of 5 mg/mL MTT was added to each well and the plates were incubated at 37 °C for additional 4 h. The medium was subsequently removed, the purple-colored precipitates of formazan were dissolved in 100 μL of DMSO. The color absorbance was recorded at 570 nm using a BioTek model EPOCH ELISA plate reader. All experiments were performed in triplicate. The absorbance values were in the range of linearity of the Lambert–Beer law.

A549 cell line = assay: MTT cytotoxicity assay; type: cell-based
Protocol: as §1, §2, §3

HeLa cell line = assay: MTT cytotoxicity assay; type: cell-based
Protocol: as §1, §2, §3

[1] = tested on: Pseudomonas aeruginosa ATCC 9027; assay: Broth microdilution MIC/MBC; settings: ATCC9027

O=C(N/N=C/c1cc(Br)cc(Br)c1O)c1cccc(I)c1 [Compound 21, N-[(3,5-dibromo-2-hydroxyphenyl)methylidene]-3-iodobenzohydrazide]
cell proliferation (T47D cell line; 24h, 10 µM, Repeat No 1): 82% | cell proliferation (T47D cell line; 24h, 10 µM, Repeat No 2): 84% | cell proliferation (T47D cell line; 24h, 25 µM, Repeat No 1): 83% | cell proliferation (T47D cell line; 24h, 25 µM, Repeat No 2): 88% | cell proliferation (T47D cell line; 24h, 50 µM, Repeat No 1): 78% | cell proliferation (T47D cell line; 24h, 50 µM, Repeat No 2): 76% | cell proliferation (T47D cell line; 24h, 75 µM, Repeat No 1): 71% | cell proliferation (T47D cell line; 24h, 75 µM, Repeat No 2): 79% | cell proliferation (T47D cell line; 24h, 100 µM, Repeat No 1): 73% | cell proliferation (T47D cell line; 24h, 100 µM, Repeat No 2): 78% | cell proliferation (T47D cell line; 48h, 10 µM, Repeat No 1): 79% | cell proliferation (T47D cell line; 48h, 10 µM, Repeat No 2): 71% | cell proliferation (T47D cell line; 48h, 25 µM, Repeat No 1): 79% | cell proliferation (T47D cell line; 48h, 25 µM, Repeat No 2): 81% | cell proliferation (T47D cell line; 48h, 50 µM, Repeat No 1): 81% | cell proliferation (T47D cell line; 48h, 50 µM, Repeat No 2): 79% | cell proliferation (T47D cell line; 48h, 75 µM, Repeat No 1): 69% | cell proliferation (T47D cell line; 48h, 75 µM, Repeat No 2): 74% | cell proliferation (T47D cell line; 48h, 100 µM, Repeat No 1): 78% | cell proliferation (T47D cell line; 48h, 100 µM, Repeat No 2): 71% | cell proliferation (A549 cell line; A549, 24h, 10 µM, Repeat No 1): 88% | cell proliferation (A549 cell line; A549, 24h, 10 µM, Repeat No 2): 99% | cell proliferation (A549 cell line; A549, 24h, 25 µM, Repeat No 1): 88% | cell proliferation (A549 cell line; A549, 24h, 25 µM, Repeat No 2): 88% | cell proliferation (A549 cell line; A549, 24h, 50 µM, Repeat No 1): 92% | cell proliferation (A549 cell line; A549, 24h, 50 µM, Repeat No 2): 101% | cell proliferation (A549 cell line; A549, 24h, 75 µM, Repeat No 1): 103% | cell proliferation (A549 cell line; A549, 24h, 75 µM, Repeat No 2): 99% | cell proliferation (A549 cell line; A549, 24h, 100 µM, Repeat No 1): 87% | cell proliferation (A549 cell line; A549, 24h, 100 µM, Repeat No 2): 94% | cell proliferation (A549 cell line; A549, 48h, 10 µM, Repeat No 1): 92% | cell proliferation (A549 cell line; A549, 48h, 10 µM, Repeat No 2): 99% | cell proliferation (A549 cell line; A549, 48h, 25 µM, Repeat No 1): 94% | cell proliferation (A549 cell line; A549, 48h, 25 µM, Repeat No 2): 91% | cell proliferation (A549 cell line; A549, 48h, 50 µM, Repeat No 1): 97% | cell proliferation (A549 cell line; A549, 48h, 50 µM, Repeat No 2): 91% | cell proliferation (A549 cell line; A549, 48h, 75 µM, Repeat No 1): 83% | cell proliferation (A549 cell line; A549, 48h, 75 µM, Repeat No 2): 87% | cell proliferation (A549 cell line; A549, 48h, 100 µM, Repeat No 1): 91% | cell proliferation (A549 cell line; A549, 48h, 100 µM, Repeat No 2): 87% | cell proliferation (HeLa cell line; 24h, 10 µM, Repeat No 1): 89% | cell proliferation (HeLa cell line; 24h, 10 µM, Repeat No 2): 88% | cell proliferation (HeLa cell line; 24h, 25 µM, Repeat No 1): 89% | cell proliferation (HeLa cell line; 24h, 25 µM, Repeat No 2): 92% | cell proliferation (HeLa cell line; 24h, 50 µM, Repeat No 1): 86% | cell proliferation (HeLa cell line; 24h, 50 µM, Repeat No 2): 104% | cell proliferation (HeLa cell line; 24h, 75 µM, Repeat No 1): 104% | cell proliferation (HeLa cell line; 24h, 75 µM, Repeat No 2): 87% | cell proliferation (HeLa cell line; 24h, 100 µM, Repeat No 1): 87% | cell proliferation (HeLa cell line; 24h, 100 µM, Repeat No 2): 91% | cell proliferation (HeLa cell line; 48h, 10 µM, Repeat No 1): 86% | cell proliferation (HeLa cell line; 48h, 10 µM, Repeat No 2): 93% | cell proliferation (HeLa cell line; 48h, 25 µM, Repeat No 1): 101% | cell proliferation (HeLa cell line; 48h, 25 µM, Repeat No 2): 97% | cell proliferation (HeLa cell line; 48h, 50 µM, Repeat No 1): 81% | cell proliferation (HeLa cell line; 48h, 50 µM, Repeat No 2): 87% | cell proliferation (HeLa cell line; 48h, 75 µM, Repeat No 1): 91% | cell proliferation (HeLa cell line; 48h, 75 µM, Repeat No 2): 89% | cell proliferation (HeLa cell line; 48h, 100 µM, Repeat No 1): 88% | cell proliferation (HeLa cell line; 48h, 100 µM, Repeat No 2): 92% | MIC [1]: > 1000 µg/mL

O=C(N/N=C/c1cc(I)cc(I)c1O)c1ccccc1I [Compound 14, N-[(3,5-diiodo-2-hydroxyphenyl)methylidene]-2-iodobenzohydrazide]
cell proliferation (T47D cell line; 24h, 10 µM, Repeat No 1): 86% | cell proliferation (T47D cell line; 24h, 10 µM, Repeat No 2): 89% | cell proliferation (T47D cell line; 24h, 25 µM, Repeat No 1): 71% | cell proliferation (T47D cell line; 24h, 25 µM, Repeat No 2): 74% | cell proliferation (T47D cell line; 24h, 50 µM, Repeat No 1): 79% | cell proliferation (T47D cell line; 24h, 50 µM, Repeat No 2): 75% | cell proliferation (T47D cell line; 24h, 75 µM, Repeat No 1): 87% | cell proliferation (T47D cell line; 24h, 75 µM, Repeat No 2): 80% | cell proliferation (T47D cell line; 24h, 100 µM, Repeat No 1): 79% | cell proliferation (T47D cell line; 24h, 100 µM, Repeat No 2): 73% | cell proliferation (T47D cell line; 48h, 10 µM, Repeat No 1): 71% | cell proliferation (T47D cell line; 48h, 10 µM, Repeat No 2): 79% | cell proliferation (T47D cell line; 48h, 25 µM, Repeat No 1): 81% | cell proliferation (T47D cell line; 48h, 25 µM, Repeat No 2): 79% | cell proliferation (T47D cell line; 48h, 50 µM, Repeat No 1): 81% | cell proliferation (T47D cell line; 48h, 50 µM, Repeat No 2): 79% | cell proliferation (T47D cell line; 48h, 75 µM, Repeat No 1): 72% | cell proliferation (T47D cell line; 48h, 75 µM, Repeat No 2): 69% | cell proliferation (T47D cell line; 48h, 100 µM, Repeat No 1): 74% | cell proliferation (T47D cell line; 48h, 100 µM, Repeat No 2): 69% | cell proliferation (A549 cell line; A549, 24h, 10 µM, Repeat No 1): 86% | cell proliferation (A549 cell line; A549, 24h, 10 µM, Repeat No 2): 77% | cell proliferation (A549 cell line; A549, 24h, 25 µM, Repeat No 1): 103% | cell proliferation (A549 cell line; A549, 24h, 25 µM, Repeat No 2): 98% | cell proliferation (A549 cell line; A549, 24h, 50 µM, Repeat No 1): 89% | cell proliferation (A549 cell line; A549, 24h, 50 µM, Repeat No 2): 84% | cell proliferation (A549 cell line; A549, 24h, 75 µM, Repeat No 1): 87% | cell proliferation (A549 cell line; A549, 24h, 75 µM, Repeat No 2): 89% | cell proliferation (A549 cell line; A549, 24h, 100 µM, Repeat No 1): 82% | cell proliferation (A549 cell line; A549, 24h, 100 µM, Repeat No 2): 74% | cell proliferation (A549 cell line; A549, 48h, 10 µM, Repeat No 1): 93% | cell proliferation (A549 cell line; A549, 48h, 10 µM, Repeat No 2): 79% | cell proliferation (A549 cell line; A549, 48h, 25 µM, Repeat No 1): 87% | cell proliferation (A549 cell line; A549, 48h, 25 µM, Repeat No 2): 91% | cell proliferation (A549 cell line; A549, 48h, 50 µM, Repeat No 1): 91% | cell proliferation (A549 cell line; A549, 48h, 50 µM, Repeat No 2): 83% | cell proliferation (A549 cell line; A549, 48h, 75 µM, Repeat No 1): 89% | cell proliferation (A549 cell line; A549, 48h, 75 µM, Repeat No 2): 89% | cell proliferation (A549 cell line; A549, 48h, 100 µM, Repeat No 1): 90% | cell proliferation (A549 cell line; A549, 48h, 100 µM, Repeat No 2): 96% | cell proliferation (HeLa cell line; 24h, 10 µM, Repeat No 1): 88% | cell proliferation (HeLa cell line; 24h, 10 µM, Repeat No 2): 81% | cell proliferation (HeLa cell line; 24h, 25 µM, Repeat No 1): 93% | cell proliferation (HeLa cell line; 24h, 25 µM, Repeat No 2): 91% | cell proliferation (HeLa cell line; 24h, 50 µM, Repeat No 1): 88% | cell proliferation (HeLa cell line; 24h, 50 µM, Repeat No 2): 82% | cell proliferation (HeLa cell line; 24h, 75 µM, Repeat No 1): 98% | cell proliferation (HeLa cell line; 24h, 75 µM, Repeat No 2): 89% | cell proliferation (HeLa cell line; 24h, 100 µM, Repeat No 1): 82% | cell proliferation (HeLa cell line; 24h, 100 µM, Repeat No 2): 89% | cell proliferation (HeLa cell line; 48h, 10 µM, Repeat No 1): 76% | cell proliferation (HeLa cell line; 48h, 10 µM, Repeat No 2): 79% | cell proliferation (HeLa cell line; 48h, 25 µM, Repeat No 1): 82% | cell proliferation (HeLa cell line; 48h, 25 µM, Repeat No 2): 89% | cell proliferation (HeLa cell line; 48h, 50 µM, Repeat No 1): 85% | cell proliferation (HeLa cell line; 48h, 50 µM, Repeat No 2): 84% | cell proliferation (HeLa cell line; 48h, 75 µM, Repeat No 1): 77% | cell proliferation (HeLa cell line; 48h, 75 µM, Repeat No 2): 71% | cell proliferation (HeLa cell line; 48h, 100 µM, Repeat No 1): 81% | cell proliferation (HeLa cell line; 48h, 100 µM, Repeat No 2): 93%
